pIC50: −log10 of the molar value. Where two headings read alike, the source gives them in different places.
What was measured:
[1] = system: HCV replicon (5-2 Luc replicon-comprising cells); test: HCV replicon assay (luciferase reporter); assay type: cell-based, Hepatitis C virus; settings: first symbol of the Replicon/Western cell, 5-2 Luc replicon cells, 24 hours with compound, read-out: Replicon (IC50, 50% reduction in luciferase emission)
Protocol: The inhibitory activity of certain exemplary compounds of the invention was confirmed using an HCV replicon assay. The HCV replicon can include such features as the HCV IRES, the HCV 3′ untranslated region, selected HCV genes encoding HCV polypeptides, selectable markers, and a reporter gene such as luciferase, GEP, etc. In the assay, actively dividing 5-2 Luc replicon-comprising cells were seeded at a density of between about 5,000 and 7,500 cells/well onto 96 well plates (about 90 μl of cells per well) and incubated at 37° C. and 5% CO2 for 24 hours. Then, the test compound (in a volume of about 10 μl) was added at various concentrations to each well and the cells were incubated for an additional 24 hours before luciferase assay. The cells were harvested, and HCV replication or translation was monitored via a reporter assay, e.g., a luciferase reporter assay. The media was aspirated from each cell and Bright-Glo ([…].) luciferase assay reagents were added to each well according to the manufacturer's instructions. In this assay, the amount of test compound that yielded a 50% reduction in luciferase emission (IC50) was determined.

[2] = cytotoxicity assay (Cell Titer Glo); assay type: cell-based; settings: human; 48 hr with compound, ATP-dependent Cell Titer Glo; read-out: IC50 (cytotoxicity, number of viable cells)
Protocol: Compounds 1, 3, 7, 9, 11, 13, 17, 19, 21, 27, 29, 31, 33, 35, 37, 39, 47, 49, 51, 57 and 69 were tested in a cytotoxicity assay with liver cells including an HCV replicon (5-2 Luc cells, 9-13 cells or Huh-7 cells). In the assay, cells were seeded onto 96-well plates (approx. 7500 cells/well in a volume of 90 μl) and grown for 24 hr at 37° C. On day 2, various concentrations of test compound (in a volume of 10 μl) were added to the wells and the cells were grown for an additional 48 hr at 37° C. On day 4, an ATP-dependent R-Luciferase assay (Cell Titer Glo assay) was performed to determine the number of viable cells.

[3] = system: HCV proteins (HCV replication); test: quantitative Western blot analysis with antibodies specific for certain HCV proteins; assay type: cell-based, Hepatitis C virus; settings: second symbol of the Replicon/Western cell, read-out: Western (IC50, 50% reduction in the amount of the specified HCV protein)
Protocol: Certain exemplary compounds of the invention were also tested for their ability to inhibit HCV replication using a quantitative Western blot analysis with antibodies specific for certain HCV proteins. In this assay, the amount of test compound that yielded a 50% reduction in the amount of the specified HCV protein as compared to a control sample (IC50) was determined.

For “2,2-Dichloro-N-[5-[3-[2-chloro-6-[4-(N-2-pyridyl)pipera phenyl])5-isoxazolyl]-(3-pyridyl)] Acetamide [Compound 69]”, the pIC50 [1] was > 5.00.

With “2,2-Dichloro-N-[5-[3-[2-chloro-6-[4-(N-acetyl)piperazino]phenyl])-5-isoxazoly]-(3-pyridyl)] Acetamide [Compound 61]” the pIC50 [1] was > 5.00.

With “2,2-Dichloro-N-[5-[3-[2-chloro-6-[4-(N-ethylcarboxamido)piperazino]phenyl])-5-isoxazolyl]-(3-pyridyl)] Acetamide [Compound 81]” the pIC50 [1] was > 5.00.

For “2,2-Dichloro-N-[5-[3-[2-chloro-6-[4-(N-tert-butoxycarbonyl)piperazino]phenyl])-5-isoxazolyl]-(3-pyridyl)] Acetamide [Compound 71]”, the pIC50 [1] was > 5.00.

For `O=C(Nc1ccnc(-c2cc(-c3c(F)cccc3Cl)no2)c1)C(Cl)Cl` [Compound 1, 2,2-Dichloro-N-[2-[3-(2-chloro-6-fluorophenyl)-5-isoxazolyl]-(4-pyridyl)] Acetamide], the pIC50 ([1]; Hepatitis C virus) was > 5.00 and the IC50 at 48 h [2] was ≥ 10 µM.

In the case of `O=C(Nc1ccnc(-c2cc(-c3c(F)cccc3C(F)(F)F)no2)c1)C(Cl)Cl` [Compound 3, 2,2-Dichloro-N-[2-[3-(2-fluoro-6-trifluoromethylphenyl)-5-isoxazolyl]-(4-pyridyl)] Acetamide], the pIC50 ([1]; Hepatitis C virus) was > 5.00, the pIC50 ([3]; Hepatitis C virus) was > 5.00 and the IC50 at 48 h [2] was ≥ 10 µM.

For `COc1cccc(F)c1-c1cc(-c2cc(NC(=O)C(Cl)Cl)ccn2)on1` [Compound 5, 2,2-Dichloro-N-[2-[3-(2-fluoro-6-methoxyphenyl)-5-isoxazolyl]-(4-pyridyl)] Acetamide], the pIC50 ([1]; Hepatitis C virus) was < 5.00 and the pIC50 ([3]; Hepatitis C virus) was > 5.00.

With `O=C(Nc1cncc(-c2cc(-c3c(Cl)cccc3Cl)no2)c1)C(Cl)Cl` [Compound 7, 2,2-Dichloro-N-[5-[3-(2,6-dichlorophenyl)-5-isoxazolyl]-(3-pyridyl)] Acetamide] the pIC50 ([1]; Hepatitis C virus) was > 5.00, the pIC50 ([3]; Hepatitis C virus) was > 5.00 and the IC50 at 48 h [2] was ≥ 10 µM.

With `O=C(Nc1cccc(-c2cc(-c3cc(Cl)nc(Cl)c3)no2)c1)C(Cl)Cl` [Compound 11, 2,2-Dichloro-N-[3-[3-[(2,6-dichloro)-4-pyridyl]-5-isoxazolyl]phenyl] Acetamide] the pIC50 [1] was < 5.00 and the pIC50 [3] was > 5.00.

For `Cc1cccc(C)c1-c1cc(-c2cc(NC(=O)C(Cl)Cl)ccn2)on1` [Compound 19, 2,2-Dichloro-N-[2-[3-(2,6-dimethylphenyl)-5-isoxazolyl]-(4-pyridyl)] Acetamide], the pIC50 ([1]; Hepatitis C virus) was > 5.00 and the IC50 at 48 h [2] was > 5 µM.

In the case of `O=C(Nc1cncc(-c2cc(-c3cccc(Cl)c3Cl)no2)c1)C(Cl)Cl` [Compound 29, 2,2-Dichloro-N-[5-[3-(2,3-dichloroplhenyl)-5-isoxazolyl]-(3-pyridyl)] Acetamide], the pIC50 ([1]; Hepatitis C virus) was > 5.00 and the IC50 at 48 h [2] was ≥ 10 µM.

With `O=C(Nc1ccnc(-c2cc(-c3c(N4CCOCC4)cccc3C(F)(F)F)no2)c1)C(Cl)Cl` [Compound 31, 2,2-Dichloro-N-[2-[3-(2-morpholino-6-trifluoromethylphenyl)-5-isoxazolyl]-(4-pyridyl)] Acetamide] the pIC50 ([1]; Hepatitis C virus) was > 5.00 and the IC50 at 48 h [2] was ≥ 10 µM.

For `Cc1cccnc1-c1cc(-c2cccc(NC(=O)C(Cl)Cl)c2)on1` [Compound 33, 2,2-Dichloro-N-[3-[3-(3-methyl-2-pyridyl)-5-isoxazolyl]phenyl] Acetamide], the pIC50 ([1]; Hepatitis C virus) was > 5.00 and the IC50 at 48 h [2] was ≥ 10 µM.

With `O=C(Nc1cccc(-c2cc(-c3c(Cl)cccc3Cl)no2)n1)C(Cl)Cl` [Compound 35, 2,2-Dichloro-N[6-[3-(2,6-dichlorophenyl)-5-isoxazolyl]-(2-pyridyl)] Acetamide] the pIC50 ([1]; Hepatitis C virus) was < 5.00 and the IC50 at 48 h [2] was ≥ 10 µM.

With `O=C(Nc1cncc(-c2cc(-c3c(F)cccc3C(F)(F)F)no2)c1)C(Cl)Cl` [Compound 37, 2,2-Dichloro-N-[5-[3-(2-fluoro-6-trifluoromethylphenyl)-5-isoxazolyl]-(3-pyridyl)] Acetamide] the pIC50 ([1]; Hepatitis C virus) was < 5.00 and the IC50 at 48 h [2] was ≥ 10 µM.

For `COc1cccc(F)c1-c1cc(-c2cc(NC(=O)C(Cl)Cl)ccn2)on1` [Compound 39], the IC50 at 48 h [2] was ≥ 10 µM.

In the case of `O=C(Nc1cc[n+]([O-])c(-c2cc(-c3c(Cl)cccc3Cl)no2)c1)C(Cl)Cl` [Compound 43], the pIC50 ([1]; Hepatitis C virus) was < 5.00.

With `CCOC(=O)c1cccnc1-c1cc(-c2cccc(NC(=O)C(Cl)Cl)c2)on1` [Compound 45, 2,2-Dichloro-N-[3-[3-[(3-ethoxycarbonyl)-2-pyridyl]-5-isoxazolyl]phenyl] Acetamide] the pIC50 ([1]; Hepatitis C virus) was < 5.00.

In the case of `O=C(Nc1ccnc(-c2cc(-c3c(F)cccc3S(=O)(=O)NN3CCOCC3)no2)c1)C(Cl)Cl` [Compound 47], the pIC50 [1] was > 5.00.

In the case of `CN(C(=O)C(Cl)Cl)c1ccnc(-c2cc(-c3c(Cl)cccc3Cl)no2)c1` [Compound 51, 2,2-Dichloro-N-[2-[3-(2,6-dichlorophenyl)-5-isoxazolyl]-(4-pyridyl)]-N-methyl Acetamide], the pIC50 ([1]; Hepatitis C virus) was > 5.00 and the IC50 at 48 h [2] was ≥ 10 µM.

For `O=C(Nc1ccnc(-c2cc(-c3c(Cl)cccc3N3CCN(c4ccccn4)CC3)no2)c1)C(Cl)Cl` [Compound 53], the pIC50 ([1]; Hepatitis C virus) was > 5.00 and the pIC50 ([3]; Hepatitis C virus) was > 5.00.

For `CCN1CCN(c2cccc(Cl)c2-c2cc(-c3cncc(NC(=O)C(Cl)Cl)c3)on2)CC1` [Compound 63], the pIC50 ([1]; Hepatitis C virus) was > 5.00.

With `O=C(Nc1ccc(-c2cc(-c3c(Cl)cccc3Cl)no2)cn1)C(Cl)Cl` [Compound 65, 2,2-Dichloro-N-[5-[3-(2,6-dichlorophenyl)-5-isoxazolyl]-(2-pyridyl)] Acetamide] the pIC50 [1] was < 5.00.

For `O=C(Nc1cncc(-c2cc(-c3ccccc3C(F)(F)F)no2)c1)C(Cl)Cl` [Compound 67, 2,2-Dichloro-N-[5-[3-(2-trifluoromethylphenyl)-5-isoxazolyl]-(3-pyridyl)] Acetamide], the pIC50 [1] was < 5.00.

In the case of `O=C(Nc1cncc(-c2cc(-c3c(Cl)cccc3N3CCNCC3)no2)c1)C(Cl)Cl` [Compound 73, 2,2-Dichloro-N-[5-[.3-(2-chloro-6-piperazinophenyl)-5-isoxazolyl]-(3-pyridyl)] Acetamide], the pIC50 [1] was > 5.00.

In the case of `CC(C)(C)[Si](C)(C)Oc1cccc(Cl)c1-c1cc(-c2cncc(NC(=O)C(Cl)Cl)c2)on1` [Compound 75, 2,2-Dichloro-N-[5-[3-(2-chloro-6-tert-butyldimethylsilyloxyphenyl)-5-isoxazolyl]-(3-pyridyl)] Acetamide], the pIC50 [1] was > 5.00.

With `O=C(Nc1cncc(-c2cc(-c3c(O)cccc3Cl)no2)c1)C(Cl)Cl` [Compound 77, 2,2-Dichloro-N-[5-[3-(2-chloro-6-hydroxyphenyl)-5-isoxazolyl]-(3-pyridyl)] Acetamide] the pIC50 [1] was > 5.00.

With `CCNC(=O)Oc1cccc(Cl)c1-c1cc(-c2cncc(NC(=O)C(Cl)Cl)c2)on1` [Compound 79, 2,2-Dichloro-N-[5-[3-(2-chloro-6-N-ethylcarbamoyloxyphenyl)-5-isoxazolyl]-(3-pyridyl)] Acetamide] the pIC50 [1] was > 5.00.

With `CC(C)(C)[Si](C)(C)Oc1cccc(Cl)c1-c1cc(-c2cc(NC(=O)C(Cl)Cl)ccn2)on1` [Compound 83, 2,2-Dichloro-N-[2-[3-(2-chloro-6-tert-butyldimethylsilyloxyphenyl)-5-isoxazolyl]-(4-pyridyl)] Acetamide] the pIC50 [1] was > 5.00.

In the case of `CCCNC(=O)Oc1cccc(Cl)c1-c1cc(-c2cc(NC(=O)C(Cl)Cl)ccn2)on1` [Compound 85], the pIC50 [1] was > 5.00.

With `COCOc1cccc(Cl)c1-c1cc(-c2cc(NC(=O)C(Cl)Cl)ccn2)on1` [Compound 87] the pIC50 [1] was > 5.00.

In the case of `O=C(Nc1ccnc(-c2cc(-c3c(O)cccc3Cl)no2)c1)C(Cl)Cl` [Compound 89, 2,2-Dichloro-N-[2-[3-(2-chloro-6-hydioxyphenyl)-5-isoxazolyl]-(4-pyridyl)] Acetamide], the pIC50 [1] was > 5.00.

For `CN(C)c1nccc(Cl)c1-c1cc(-c2cccc(NC(=O)C(Cl)Cl)c2)on1` [Compound 91, 2,2-Dichloro-N-[3-[3-[(4-chloro-2-dimethylamino)-3-pyridyl]-5-isoxazolyl]phenyl] Acetamide], the pIC50 [1] was > 5.00.

With `O=C(Nc1cccc(-c2cc(-c3c(Cl)ccnc3Cl)no2)c1)C(Cl)Cl` [Compound 93, 2,2-Dichloro-N-[3-[3-[(2,4-dichloro)-3-pyridy]-5-isoxazolyl]phenyl] Acetamide] the pIC50 [1] was > 5.00.

For `O=C(Nc1ccncc1-c1cc(-c2cccc(Br)n2)no1)C(Cl)Cl` [Compound 97, 2,2-Dichloro-N-[3-[3-[(6-bromo)-2-pyridyl]-5-isoxazolyl]-(4-pyridyl)] Acetamide], the pIC50 [1] was < 5.00.
